From PubChem BioAssay (NCI) come the findings set out here.

Each structure is given as a SMILES string.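 Cells were grown in 96-well plates and exposed to each compound for 48 hours at five concentrations; endpoints were interpolated linearly between bracketing concentrations, or set to the highest concentration if not reached. GI50 marks 50% less growth. The concentration for full growth arrest is given as TGI.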 Some results are limits rather than exact numbers.

Some test systems named below: TK-10 renal; K-562 leukemia; ACHN renal; HCT-116 colon; MDA-MB-435; SK-MEL-2 melanoma; CAKI-1 renal; SK-MEL-5 melanoma; U251 CNS; 786-0 renal.
Experiment in all cases: DTP human tumour cell line panel, 48 h

For `COc1ccc(C2N(c3ccc(C)c(N=C=O)c3)C(=O)N3C(c4ccc(OC)cc4)N(c4ccc(C)c(N=C=O)c4)C(=O)N23)cc1` (configuration not stated), the TGI in the assay on TK-10 renal, with K-562 leukemia, in the assay with ACHN renal, with HCT-116 colon, with MDA-MB-435 and with SK-MEL-2 melanoma was over 100 µM each time. For the same molecule, the TGI in the assay on CAKI-1 renal, with SK-MEL-5 melanoma, in the assay with U251 CNS and in the assay on 786-0 renal was over 100 µM in each case.
`NS(=O)(=O)c1ccc(-c2ccc([As](=O)(O)O)cc2)cc1`: the TGI with TK-10 renal, in the assay with K-562 leukemia, in the assay on ACHN renal, in the assay with HCT-116 colon, with MDA-MB-435 and in the assay on SK-MEL-2 melanoma was over 100 µM each time. Further, the TGI in the assay with CAKI-1 renal, in the assay on SK-MEL-5 melanoma, with U251 CNS and with 786-0 renal was over 100 µM in each case.
`Cc1cc(N(CCC#N)CCC#N)ccc1/C(N=Nc1ccc(C(=O)O)cc1)=N\NC(=O)c1ccccc1`: the TGI in the assay with TK-10 renal, in the assay on K-562 leukemia, in the assay with ACHN renal, in the assay with HCT-116 colon, in the assay with MDA-MB-435 and in the assay on SK-MEL-2 melanoma was over 100 µM throughout. Besides, the concentration for total growth inhibition (TGI) in the assay on CAKI-1 renal, with SK-MEL-5 melanoma, in the assay on U251 CNS and in the assay on 786-0 renal was over 100 µM each time.
For `COc1cc2c3c(n(C)c(=O)c2cc1OC)-c1cc2c(cc1/C3=C\CCCCl)OCO2`, the TGI – broadly, the concentration giving total growth inhibition – in the assay with TK-10 renal is 37.3 µM; with K-562 leukemia, over 100 µM; with ACHN renal, over 100 µM; with HCT-116 colon, over 100 µM; in the assay with MDA-MB-435, over 100 µM; with SK-MEL-2 melanoma it was 98.9 µM. In addition, the TGI is over 100 µM in the assay with CAKI-1 renal, 70.6 µM with SK-MEL-5 melanoma, over 100 µM with U251 CNS and 40 µM with 786-0 renal. Further, the GI50 (usually the concentration at which growth is held to half of that of the control) is 40.4 µM in the assay with HCT-116 colon and over 100 µM in the assay on MDA-MB-435.
`c1ccc2c(c1)nnn2C1CCCCO1` (configuration not stated): the TGI in the assay with TK-10 renal, in the assay with K-562 leukemia, with ACHN renal, in the assay with HCT-116 colon, with MDA-MB-435 and in the assay with SK-MEL-2 melanoma was over 100 µM throughout. Also, the TGI in the assay on CAKI-1 renal, with SK-MEL-5 melanoma, in the assay with U251 CNS and with 786-0 renal was over 100 µM each time.
For `CCOc1ccc2c(c1)C(/C(C(Cl)=C(Cl)Cl)=[N+](/[O-])OC(=O)c1ccccc1)=N2`, the total growth inhibition concentration (TGI) in the assay with TK-10 renal, in the assay with K-562 leukemia, in the assay on ACHN renal, in the assay on HCT-116 colon, in the assay on MDA-MB-435 and in the assay with SK-MEL-2 melanoma was over 100 µM throughout. Moreover, the TGI with CAKI-1 renal, in the assay on SK-MEL-5 melanoma, in the assay on U251 CNS and in the assay on 786-0 renal was over 100 µM in each case.
For `C[Si](C)(C)OC1(C#N)c2ccccc2CCCC12CCCC2` (configuration not stated), the TGI in the assay with TK-10 renal was over 100 µM; in the assay on K-562 leukemia, over 100 µM; in the assay with ACHN renal, over 100 µM; in the assay with HCT-116 colon, over 100 µM; with MDA-MB-435 it was over 100 µM; with SK-MEL-2 melanoma it was 45.7 µM. For the same molecule, the TGI is over 100 µM in the assay with CAKI-1 renal, 56.2 µM in the assay with SK-MEL-5 melanoma, 92.2 µM in the assay on U251 CNS and over 100 µM in the assay with 786-0 renal.
Turning to `Cc1ccc(C)n1-c1ccccc1C1C=Cn2c(=O)oc3c(OC(C)C)c(OC(C)C)c(O)c1c32` (configuration not stated), the TGI was over 100 µM in the assay with TK-10 renal; over 100 µM in the assay with K-562 leukemia; over 100 µM in the assay with ACHN renal; over 100 µM in the assay with HCT-116 colon; 38.6 µM in the assay with MDA-MB-435; 78.2 µM in the assay with SK-MEL-2 melanoma. Moreover, the TGI with CAKI-1 renal, in the assay with SK-MEL-5 melanoma, in the assay on U251 CNS and with 786-0 renal was over 100 µM throughout.
Take `CCC[N+](C)(C)CCCNC(=O)c1c(O)c2ccccc2[nH]c1=O`: the TGI in the assay with TK-10 renal, in the assay on K-562 leukemia, in the assay on ACHN renal, in the assay with HCT-116 colon, in the assay with MDA-MB-435 and in the assay with SK-MEL-2 melanoma was over 100 µM throughout. For the same molecule, the TGI with CAKI-1 renal is over 100 µM; in the assay on SK-MEL-5 melanoma it was 54.8 µM; with U251 CNS, over 100 µM; in the assay with 786-0 renal, over 100 µM.
On to `[N-]=[N+]=Nc1cc(=O)[nH]c2ccccc12`, for which the TGI in the assay with TK-10 renal, in the assay on K-562 leukemia, in the assay with ACHN renal, in the assay with HCT-116 colon, in the assay on MDA-MB-435 and in the assay on SK-MEL-2 melanoma was over 100 µM in each case. The total growth inhibition concentration (TGI) with CAKI-1 renal, in the assay with SK-MEL-5 melanoma, in the assay with U251 CNS and with 786-0 renal was over 100 µM each time.
`CC1(C)C2CC3C(C)(C2)C31c1cc(Cl)ccc1N` (configuration not stated): the TGI is 29.1 µM with TK-10 renal; 23.5 µM in the assay on K-562 leukemia; 29 µM in the assay with ACHN renal; 17.5 µM in the assay with HCT-116 colon; 25.1 µM in the assay with MDA-MB-435; 29.4 µM in the assay with SK-MEL-2 melanoma. Also, the TGI is 29.1 µM with CAKI-1 renal, 27.1 µM in the assay on SK-MEL-5 melanoma, 28.5 µM with U251 CNS and 28.6 µM in the assay with 786-0 renal.
